Pest or weed control data for seven compounds are collected here from patent US20230017045A1, “PYRIDINE AND PYRIMIDINE CARBOXYLATE HERBICIDES AND METHODS OF USE THEREOF” (Dow AgroSciences LLC, priority 2017, published 2023).

The test system of the assay is test plant species. The assay is described as follows: Post-emergent herbicidal activity test (greenhouse, foliar spray, visual growth reduction). The format is in vivo. As to conditions: post-emergence, 336 h, 140 g ai/ha, 14 days after application. As for the experimental part:
Post-emergent Test: Seeds or nutlets of the desired test plant species were planted in Sun Gro Metro-Mix® 360 planting mixture, which typically has a pH of 6.0 to 6.8 and an organic matter content of about 30 percent, in plastic pots with a surface area of 64 square centimeters. In some aspects, to ensure good germination and healthy plants, a fungicide treatment and/or other chemical or physical treatment was applied. The plants were grown for 7-21 d in a greenhouse with an approximate 15 h photoperiod which was maintained at 23-29° C. during the day and 22-28° C. during the night. Nutrients and water were added on a regular basis and supplemental lighting was provided with overhead metal halide 1000-Watt lamps as necessary. Plants were used for testing when they reached the first or second true leaf stage. A weighed amount, determined by the highest rate to be tested, of each test compound was placed in a 25 mL glass vial and was dissolved in 4 mL of a 97:3 v/v mixture of acetone and DMSO to obtain concentrated stock solutions. […] The concentrated stock solutions obtained were diluted with 20 mL of an aqueous mixture containing acetone, water, isopropyl alcohol, DMSO, […] crop oil concentrate, and X-77 surfactant in a 48.5:39:10:1.5:1.0:0.02 v/v ratio to obtain spray solutions containing the application rate. Compound requirements are based upon a 12 mL application volume at a rate of 187 liters per hectare (L/ha). Formulated compounds were applied to the plant material with an overhead Mandel track sprayer equipped with […] nozzles calibrated to deliver 187 L/ha over an application area of 0.64 square meters at a spray height of 18 inches (43 cm) above the average plant canopy height. Control plants were sprayed in the same manner with the solvent blank. The treated plants and control plants were placed in a greenhouse as described above and watered by subirrigation to prevent wash-off of the test compounds. After 14 d, the condition of the test plants as compared with that of the nontreated and control plants was determined visually and scored on a scale of 0 to 100 percent where 0 corresponds to no injury and 100 corresponds to complete control. In the reporting of the results, Table A: Percent Growth Reduction Conversion Table was used.

Where [1] appears, read: ALOMY: blackgrass (Alopecurus myosuroides), read-out: Visual Growth Reduction (%) 14 Days After Application, ALOMY.
The mark [2] stands for this setting: AMARE: redroot pigweed (Amaranthus retroflexus), read-out: Visual Growth Reduction (%) 14 Days After Application, AMARE.
[3] abbreviates: AVEFA: wild oat (Avena fatua), read-out: Visual Growth Reduction (%) 14 Days After Application, AVEFA.
[4] abbreviates: CHEAL: lambsquarters (Chenopodium album), read-out: Visual Growth Reduction (%) 14 Days After Application, CHEAL.
[5] abbreviates: CIRAR: canada thistle (Cirsium arvense), read-out: Visual Growth Reduction (%) 14 Days After Application, CIRAR.
[6] abbreviates: CYPES: yellow nutsedge (Cyperus esculentus), read-out: Visual Growth Reduction (%) 14 Days After Application, CYPES.
[7] abbreviates: DIGSA: crabgrass (Digitaria sanguinalis), read-out: Visual Growth Reduction (%) 14 Days After Application, DIGSA.
[8] abbreviates: ECHCG: barnyardgrass (Echinochloa crus-galli), read-out: Visual Growth Reduction (%) 14 Days After Application, ECHCG.
Where [9] appears, read: IPOHE: ivy-leaf morning glory (Ipomoea hederacea), read-out: Visual Growth Reduction (%) 14 Days After Application, IPOHE.
[10] abbreviates: KCHSC: kochia (Bassia scoparia), read-out: Visual Growth Reduction (%) 14 Days After Application, KCHSC.
Setting [11] is: ORYSA: rice (Oryza sativa), read-out: Visual Growth Reduction (%) 14 Days After Application, ORYSA.
[12] abbreviates: SETFA: giant foxtail (Setaria faberi), read-out: Visual Growth Reduction (%) 14 Days After Application, SETFA.
The mark [13] stands for this setting: SORVU: grain sorghum (Sorghum vulgare), read-out: Visual Growth Reduction (%) 14 Days After Application, SORVU.
Setting [14] is: STEME: common chickweed (Stellaria media), read-out: Visual Growth Reduction (%) 14 Days After Application, STEME.
[15] abbreviates: TRZAS: wheat, spring (Triticum aestivum), read-out: Visual Growth Reduction (%) 14 Days After Application, TRZAS.

Where two headings read alike, the source gives them in different places.

With `COC(=O)c1nc(-c2ccc(C(F)(F)F)cc2Cl)ccc1Br` [F32, Methyl 3-bromo-6-(2-chloro-4-(trifluoromethyl)yl)picolinate], the pest or weed control at 140 g/ha under setting [1] fell in the range of 0 to 29%; the pest or weed control at 140 g/ha under setting [2] lay in the range of 60 to 74%; the pest or weed control at 140 g/ha under setting [3] was in the range of 0 to 29%; the pest or weed control at 140 g/ha under setting [4] lay in the range of 60 to 74%; the pest or weed control at 140 g/ha under setting [5] fell in the range of 75 to 84%; the pest or weed control at 140 g/ha under setting [6] was in the range of 0 to 29%. Besides, the pest or weed control at 140 g/ha by setting is: under setting [7], 60 to 74%; under setting [8], 0 to 29%; under setting [9], 95 to 100%; under setting [10], 45 to 59%; under setting [11], 0 to 29%; under setting [12], 30 to 44%. Also, the pest or weed control at 140 g/ha reads like this: under setting [13], 85 to 94%; under setting [14], 0 to 29%; under setting [15], 0 to 29%.
As to `COC(=O)c1nc(-c2ccc(C(F)(F)F)cc2Cl)c(O)cc1Cl` [F34, methyl 3-chloro-6-(2-chloro-4-(trifluoromethyl)phenyl)-5-hydroxypicolinate], the pest or weed control at 140 g/ha is, setting by setting: under setting [1], 0 to 29%; under setting [2], 0 to 29%; under setting [3], 0 to 29%; under setting [4], 45 to 59%; under setting [5], 0 to 29%; under setting [6], 0 to 29%. Besides, the pest or weed control at 140 g/ha runs as follows: under setting [7], 0 to 29%; under setting [8], 0 to 29%; under setting [9], 0 to 29%; under setting [10], 0 to 29%; under setting [11], 0 to 29%; under setting [12], 0 to 29%. Further, the pest or weed control at 140 g/ha reads like this: under setting [13], 0 to 29%; under setting [14], 0 to 29%; under setting [15], 0 to 29%.
Regarding `COC(=O)c1nc(-c2ccc(OC)cc2Cl)ccc1Cl` [F35, Methyl 3-chloro-6-(2-chloro-4-methoxyphenyl) picolinate], the pest or weed control at 140 g/ha under setting [1] lay within 0 to 29%; the pest or weed control at 140 g/ha under setting [2] was in the range of 30 to 44%; the pest or weed control at 140 g/ha under setting [3] was in the range of 0 to 29%; the pest or weed control at 140 g/ha under setting [4] is 0 to 29%; the pest or weed control at 140 g/ha under setting [5] lay within 0 to 29%; the pest or weed control at 140 g/ha under setting [6] is 0 to 29%. Besides, the pest or weed control at 140 g/ha under setting [7] is 0 to 29%; the pest or weed control at 140 g/ha under setting [8] lay within 0 to 29%; the pest or weed control at 140 g/ha under setting [9] was in the range of 0 to 29%; the pest or weed control at 140 g/ha under setting [10] fell in the range of 0 to 29%; the pest or weed control at 140 g/ha under setting [11] lay within 0 to 29%; the pest or weed control at 140 g/ha under setting [12] is 0 to 29%. The pest or weed control at 140 g/ha under setting [13] fell in the range of 0 to 29%, the pest or weed control at 140 g/ha under setting [14] lay in the range of 0 to 29% and the pest or weed control at 140 g/ha under setting [15] lay in the range of 0 to 29%.
With `COC(=O)c1nc(-c2ccc(OC(C)(C)C)cc2Cl)ccc1Cl` [F36, Methyl 6-(4-(tert-butoxy)-2-chlorophenyl)-3-chloropicolinate], the pest or weed control at 140 g/ha lay within 0 to 29% under setting [1]; 0 to 29% under setting [2]; 0 to 29% under setting [3]; 0 to 29% under setting [4]; 0 to 29% under setting [5]; 0 to 29% under setting [6]. The pest or weed control at 140 g/ha is, setting by setting: under setting [7], 0 to 29%; under setting [8], 0 to 29%; under setting [9], 0 to 29%; under setting [10], 0 to 29%; under setting [11], 0 to 29%; under setting [12], 0 to 29%. Besides, the pest or weed control at 140 g/ha was 0 to 29% under setting [13], 0 to 29% under setting [14] and 0 to 29% under setting [15].
Turning to `COC(=O)c1nc(-c2ccc(F)cc2Cl)ccc1Cl` [F37, Methyl 3-chloro-6-(2-chloro-4-fluorophenyl) picolinate], the pest or weed control at 140 g/ha runs as follows: under setting [1], 0 to 29%; under setting [2], 85 to 94%; under setting [3], 0 to 29%; under setting [4], 60 to 74%; under setting [5], 0 to 29%; under setting [6], 0 to 29%. Further, the pest or weed control at 140 g/ha is, setting by setting: under setting [7], 0 to 29%; under setting [8], 0 to 29%; under setting [9], 75 to 84%; under setting [10], 0 to 29%; under setting [11], 0 to 29%; under setting [12], 0 to 29%. The pest or weed control at 140 g/ha fell in the range of 75 to 84% under setting [13], 0 to 29% under setting [14] and 0 to 29% under setting [15].
`COC(=O)c1nc(-c2cc(C(F)(F)F)ccc2Cl)ccc1Cl` [F38, Methyl 3-chloro-6-(2-chloro-5-(trifluoromethyl)phenyl)picolinate]: the pest or weed control at 140 g/ha lay in the range of 0 to 29% under setting [1]; 0 to 29% under setting [2]; 0 to 29% under setting [3]; 0 to 29% under setting [4]; 0 to 29% under setting [5]; 0 to 29% under setting [6]. The pest or weed control at 140 g/ha under setting [7] lay in the range of 0 to 29%; the pest or weed control at 140 g/ha under setting [8] lay within 0 to 29%; the pest or weed control at 140 g/ha under setting [9] was 0 to 29%; the pest or weed control at 140 g/ha under setting [10] was in the range of 0 to 29%; the pest or weed control at 140 g/ha under setting [11] fell in the range of 0 to 29%; the pest or weed control at 140 g/ha under setting [12] lay in the range of 0 to 29%. The pest or weed control at 140 g/ha fell in the range of 0 to 29% under setting [13], 0 to 29% under setting [14] and 0 to 29% under setting [15].
In the case of `COC(=O)c1nc(-c2ccc(C(F)(F)F)cc2Cl)cc(OC)c1Cl` [F39, Methyl 3-chloro-6-(trifluoromethyl) phenyl)-4-methoxypicolinate], the pest or weed control at 140 g/ha was in the range of 0 to 29% under setting [1]; 0 to 29% under setting [2]; 0 to 29% under setting [3]; 0 to 29% under setting [4]; 0 to 29% under setting [5]; 0 to 29% under setting [6]. Moreover, the pest or weed control at 140 g/ha under setting [7] lay in the range of 0 to 29%; the pest or weed control at 140 g/ha under setting [8] was 0 to 29%; the pest or weed control at 140 g/ha under setting [9] lay in the range of 0 to 29%; the pest or weed control at 140 g/ha under setting [10] was 0 to 29%; the pest or weed control at 140 g/ha under setting [11] lay in the range of 0 to 29%; the pest or weed control at 140 g/ha under setting [12] fell in the range of 0 to 29%. Further, the pest or weed control at 140 g/ha under setting [13] lay in the range of 30 to 44%, the pest or weed control at 140 g/ha under setting [14] lay in the range of 0 to 29% and the pest or weed control at 140 g/ha under setting [15] was in the range of 0 to 29%.
